Results taken from patent publication US12589143B2, “Human anti-PD-L1 peptide vaccines and methods of their use” (priority 2019, dated 2026).
Values joined by “and” are separate entries in the source; they are usually repeats but may differ in a detail not shown here. Equal values may be shown once. Where no end group is shown, it is not given here.

System: MVF-PD-L1 peptide immunogen
Experiment: Immunogenicity in Balb/c mice, experiment 1 (CT26 WT): ELISA of sera vs each MVF-PD-L1 peptide immunogen
Format: in vivo
Settings: for Immunogenicity (titers) 1′ Conc. 1:: Balb/c mice
Outline: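 Female Balb/c mice aged 6–8 weeks received 100 μg of each MVF-PD-L1 peptide in Montanide ISA 720 with nor-MDP three times at 3-week intervals. Weekly sera were titered by ELISA against each immunogen on 200 ng/well peptide. Titer was the highest dilution giving absorbance 0.2 after blank subtraction.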

Sequence: KLLSLIKGVIVHRLEGVEGPSLLIVYWEMEDKNIIQFVHG (KLLSLIKGVIVHRLEGVEGPSLLIVYWEMEDKNIIQFVHG-NH2) [PD-L1(36)]
- Immunogenicity (titers) 1′ Conc. 1: (bleed 1Y + 3): 400
- Immunogenicity (titers) 1′ Conc. 1: (bleed 2Y + 1): 1600
- Immunogenicity (titers) 1′ Conc. 1: (bleed 2Y + 2): 6400
- Immunogenicity (titers) 1′ Conc. 1: (bleed 2Y + 3): 16000
- Immunogenicity (titers) 1′ Conc. 1: (bleed 3Y + 1): 16000
- Immunogenicity (titers) 1′ Conc. 1: (bleed 3Y + 2): 16000
- Immunogenicity (titers) 1′ Conc. 1: (bleed 3Y + 3): 16000
- ELISA absorbance of sera (bleed 1Y + 3 (1to100), dilution 100): 0.598 and 0.583
- ELISA absorbance of sera (bleed 1Y + 3 (1to100), dilution 200): 0.352 and 0.300
- ELISA absorbance of sera (bleed 1Y + 3 (1to100), dilution 400): 0.212 and 0.200
- ELISA absorbance of sera (bleed 1Y + 3 (1to100), dilution 800): 0.117 and 0.088
- ELISA absorbance of sera (bleed 1Y + 3 (1to100), dilution 1,600): 0.063 and 0.046
- ELISA absorbance of sera (bleed 1Y + 3 (1to100), dilution 3,200): 0.032 and 0.027
- ELISA absorbance of sera (bleed 1Y + 3 (1to100), dilution 6,400): 0.014 and 0.010
- ELISA absorbance of sera (bleed 1Y + 3 (1to100), dilution 12,800): 0.010 and 0.006
- ELISA absorbance of sera (bleed 2Y + 1 (1to100), dilution 100): 1.031 and 0.901
- ELISA absorbance of sera (bleed 2Y + 1 (1to100), dilution 200): 0.815 and 0.784
- ELISA absorbance of sera (bleed 2Y + 1 (1to100), dilution 400): 0.601 and 0.591
- ELISA absorbance of sera (bleed 2Y + 1 (1to100), dilution 800): 0.408 and 0.394
- ELISA absorbance of sera (bleed 2Y + 1 (1to100), dilution 1,600): 0.273 and 0.203
- ELISA absorbance of sera (bleed 2Y + 1 (1to100), dilution 3,200): 0.163 and 0.116
- ELISA absorbance of sera (bleed 2Y + 1 (1to100), dilution 6,400): 0.090 and 0.067
- ELISA absorbance of sera (bleed 2Y + 1 (1to100), dilution 12,800): 0.049 and 0.031
- ELISA absorbance of sera (bleed 2Y + 2 (1to100), dilution 100): 1.281 and 1.251
- ELISA absorbance of sera (bleed 2Y + 2 (1to100), dilution 200): 1.162 and 1.137
- ELISA absorbance of sera (bleed 2Y + 2 (1to100), dilution 400): 1.033 and 1.019
- ELISA absorbance of sera (bleed 2Y + 2 (1to100), dilution 800): 0.975 and 0.820
- ELISA absorbance of sera (bleed 2Y + 2 (1to100), dilution 1,600): 0.691 and 0.602
- ELISA absorbance of sera (bleed 2Y + 2 (1to100), dilution 3,200): 0.460 and 0.389
- ELISA absorbance of sera (bleed 2Y + 2 (1to100), dilution 6,400): 0.299 and 0.248
- ELISA absorbance of sera (bleed 2Y + 3 (1to1k), dilution 100): 0.855 and 0.817
- ELISA absorbance of sera (bleed 2Y + 3 (1to1k), dilution 200): 0.695 and 0.612
- ELISA absorbance of sera (bleed 2Y + 3 (1to1k), dilution 400): 0.530 and 0.500
- ELISA absorbance of sera (bleed 2Y + 3 (1to1k), dilution 800): 0.393 and 0.359
- ELISA absorbance of sera (bleed 2Y + 3 (1to1k), dilution 1,600): 0.273 and 0.257
- ELISA absorbance of sera (bleed 2Y + 3 (1to1k), dilution 3,200): 0.155 and 0.146
- ELISA absorbance of sera (bleed 2Y + 3 (1to1k), dilution 6,400): 0.074 and 0.049
- ELISA absorbance of sera (bleed 3Y + 1 (1to1k), dilution 100): 0.966 and 0.923
- ELISA absorbance of sera (bleed 3Y + 1 (1to1k), dilution 200): 0.785 and 0.691
- ELISA absorbance of sera (bleed 3Y + 1 (1to1k), dilution 400): 0.599 and 0.565
- ELISA absorbance of sera (bleed 3Y + 1 (1to1k), dilution 800): 0.444 and 0.406
- ELISA absorbance of sera (bleed 3Y + 1 (1to1k), dilution 1,600): 0.308 and 0.291
- ELISA absorbance of sera (bleed 3Y + 1 (1to1k), dilution 3,200): 0.175 and 0.165
- ELISA absorbance of sera (bleed 3Y + 1 (1to1k), dilution 6,400): 0.084 and 0.056
- ELISA absorbance of sera (bleed 3Y + 2 (1to1k), dilution 100): 1.202 and 1.225
- ELISA absorbance of sera (bleed 3Y + 2 (1to1k), dilution 200): 0.934 and 0.949
- ELISA absorbance of sera (bleed 3Y + 2 (1to1k), dilution 400): 0.658 and 0.662
- ELISA absorbance of sera (bleed 3Y + 2 (1to1k), dilution 800): 0.405 and 0.424
- ELISA absorbance of sera (bleed 3Y + 2 (1to1k), dilution 1,600): 0.240 and 0.228
- ELISA absorbance of sera (bleed 3Y + 2 (1to1k), dilution 3,200): 0.151 and 0.130
- ELISA absorbance of sera (bleed 3Y + 2 (1to1k), dilution 6,400): 0.077
- ELISA absorbance of sera (bleed 3Y + 3 (1to1k), dilution 100): 1.269 and 1.387
- ELISA absorbance of sera (bleed 3Y + 3 (1to1k), dilution 200): 0.919 and 1.048
- ELISA absorbance of sera (bleed 3Y + 3 (1to1k), dilution 400): 0.666 and 0.772
- ELISA absorbance of sera (bleed 3Y + 3 (1to1k), dilution 800): 0.418 and 0.430
- ELISA absorbance of sera (bleed 3Y + 3 (1to1k), dilution 1,600): 0.246 and 0.257
- ELISA absorbance of sera (bleed 3Y + 3 (1to1k), dilution 3,200): 0.081 and 0.119
- ELISA absorbance of sera (bleed 3Y + 3 (1to1k), dilution 6,400): 0.025
